Data published in patent US20090270350A1, “Pyridinone Pyrazole Urea and Pyrimidinone Pyrazole Urea Derivatives” (PFIZER INC., priority 2006, published 2009).

target: p38α (Homo sapiens, UniProt Q16539); test: p38α/MK2 cascade assay; assay type: biochemical; conditions: Table 1; inhibitors preincubated with p38α for 40 minutes; phosphorylation of Hsp27 peptide by MK-2, Caliper LabChip 3000; read-out: p38a/MK2 Cascade 40 min Pre-Incuabtion (% Inhibition): IC50
Description: The ability of compounds to inhibit activated p38α was determined in a p38α/MK-2 cascade assay format. The kinase activity of p38α is determined by its ability to phosphorylate/activate nonactive MK2 (54-400). Activation of MK-2 by p38α is measured by following the phosphorylation of a MK-2 specific peptide, Hsp27 peptide (FITC-KKKALSRQLSVAA). The phosphorylation of the Hsp27 peptide was quantified using the Caliper LabChip 3000. The kinase reactions were carried out in 20 mM HEPES pH 7.5, 10 mM MgCl2, 0.0005% Tween-20, 0.01% BSA, 1 mM DTT, and 2% DMSO. The inhibitors were varied between 1000-0.05 nM, while the Hsp27 peptide substrate, MgATP, and nonactive MK-2 (54-400) were held constant at 0.5 µM, 5 µM, and 1 nM, respectively. Inhibitors were preincubated with p38α for 40 minutes prior to initiating the reaction with peptide, MgATP, and MK-2. The kinase reactions were quenched after 60 minutes by the addition of stop buffer (180 mM HEPES, 30 mM EDTA, and 0.2% Coating Reagent-3).
The above protocol assay was used to determine the IC50 values for some of the compounds in the above Examples.
IC50 values were determined for the compounds listed in Table 2, using the same p38α/MK2 cascade assay used to determine the IC50 values for the compounds in Table 1. The compounds of Table 2 were prepared using methods similar to those listed in the Examples for compounds of Table 1.

p38α, sequence (Q16539 whole entry): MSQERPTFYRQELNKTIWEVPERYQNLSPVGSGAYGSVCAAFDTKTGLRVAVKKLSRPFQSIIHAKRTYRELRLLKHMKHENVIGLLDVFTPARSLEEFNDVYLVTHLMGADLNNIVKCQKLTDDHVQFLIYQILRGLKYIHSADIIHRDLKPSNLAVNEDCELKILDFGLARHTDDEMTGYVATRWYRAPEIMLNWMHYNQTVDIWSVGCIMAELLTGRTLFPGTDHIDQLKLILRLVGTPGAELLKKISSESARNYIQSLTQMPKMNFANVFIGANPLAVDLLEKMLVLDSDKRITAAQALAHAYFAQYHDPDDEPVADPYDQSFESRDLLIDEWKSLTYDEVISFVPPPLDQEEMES

With `COc1ccc(Cn2c(C)cc(OCc3ccc(F)cc3CNC(=O)Nc3cc(C(C)(C)C)nn3-c3ccc(O)c(Cl)c3)c(Cl)c2=O)cc1` [Example 62, 1-[3-tert-butyl-1-(3-chloro-4-hydroxyphenyl)-1H-pyrazol-5-yl]-3-[2-({[3-chloro-1-(4-methoxybenzyl)-6-methyl-2-oxo-1,2-dihydropyridin-4-yl]oxy}methyl)-5-fluorobenzyl]urea] as the molecule, how does the IC50 read?
Its IC50 is 4.5 nM.

For `COc1cccc(Cn2c(C)cc(OCc3ccc(F)cc3CNC(=O)Nc3cc(C(C)(C)C)nn3-c3cccc(OC)c3)cc2=O)c1` [Example 35, 1-[3-tert-butyl-1-(3-methoxyphenyl)-1H-pyrazol-5-yl]-3-[5-fluoro-2-({[1-(3-methoxybenzyl)-6-methyl-2-oxo-1,2-dihydropyridin-4-yl]oxy}methyl)benzyl]urea], which IC50 is on record?
Its IC50 is 42.2 nM.

`COc1cccc(-n2nc(C(C)(C)C)cc2NC(=O)NCc2ccccc2COc2cc(C)n(Cc3ccccc3)c(=O)c2C)c1` [Example 128-B, 1-(2-{[(1-benzyl-3,6-dimethyl-2-oxo-1,2-dihydropyridin-4-yl)oxy]methyl}benzyl)-3-[3-tert-butyl-1-(3-methoxyphenyl)-1H-pyrazol-5-yl]urea] was tested. Which IC50 did it give?
The IC50 was 12.5 nM.

Which IC50 does the source give for `COc1cccc(Cn2c(C)cc(OCc3ccc(F)cc3CNC(=O)Nc3cc(C(C)(C)C)nn3-c3ccc(Cl)c(O[Si](C)(C)C(C)(C)C)c3)c(Cl)c2=O)c1` [Example 43, 1-[3-tert-butyl-1-(3-{[tert-butyl(dimethyl)silyl]oxy}-4-chlorophenyl)-1H-pyrazol-5-yl]-3-[2-({[3-chloro-1-(3-methoxybenzyl)-6-methyl-2-oxo-1,2-dihydropyridin-4-yl]oxy}methyl)-5-fluorobenzyl]urea] here?
Its IC50 is 43.1 nM.

With `CNC(=O)c1ccc(C)c(-n2c(C)cc(OCc3ccc(F)cc3CNC(=O)Nc3cc(C(C)(C)C)nn3-c3cccc(Cl)c3)c(Cl)c2=O)c1` [Example 194, 3-{4-[(2-{[({[3-tert-butyl-1-(3-chlorophenyl)-1H-pyrazol-5-yl]amino}carbonyl)amino]methyl}-4-fluorobenzyl)oxy]-3-chloro-6-methyl-2-oxopyridin-1(2H)-yl}-N,4-dimethylbenzamide] as the molecule, how does the IC50 read?
The IC50 was 2.45 nM.

Which IC50 does the source give for `COc1cccc(-n2nc(C(C)(C)C)cc2NC(=O)NCc2ccccc2COc2cc(C)n(Cc3ccccc3)c(=O)c2Br)c1` [Example 109, 1-(2-{[(1-benzyl-3-bromo-6-methyl-2-oxo-1,2-dihydropyridin-4-yl)oxy]methyl}benzyl)-3-[3-tert-butyl-1-(3-methoxyphenyl)-1H-pyrazol-5-yl]urea] here?
Its IC50 is 6.38 nM.

Which IC50 does the source give for `Cc1ccc(-n2nc(C(C)(C)C)cc2NC(=O)NCc2ccccc2COc2cc(C)n(Cc3ccccc3)c(=O)c2C)cc1` [Example 128-C, 1-(2-{[(1-benzyl-3,6-dimethyl-2-oxo-1,2-dihydropyridin-4-yl)oxy]methyl}benzyl)-3-[3-tert-butyl-1-(4-methylphenyl)-1H-pyrazol-5-yl]urea] here?
The IC50 was 12.1 nM.

How did the IC50 turn out when `COc1cccc(Cn2c(C)cc(OCc3ccccc3CNC(=O)Nc3cc(C(C)(C)C)nn3-c3cccc(OCCOC4CCCCO4)c3)cc2=O)c1` (stereo not drawn) [Example 36, 1-(3-tert-butyl-1-{3-[2-(tetrahydro-2H-pyran-2-yloxy)ethoxy]phenyl}-1H-pyrazol-5-yl)-3-[2-({[1-(3-methoxybenzyl)-6-methyl-2-oxo-1,2-dihydropyridin-4-yl]oxy}methyl)benzyl]urea] was run?
Its IC50 is 142 nM.

With `CCc1c(OCc2ccccc2CNC(=O)Nc2cc(C(C)(C)C)nn2-c2ccc(C)cc2)ncn(Cc2ccc(OC)cc2)c1=O` [Example 114, 1-[3-tert-butyl-1-(4-methylphenyl)-1H-pyrazol-5-yl]-3-[2-({[5-ethyl-1-(4-methoxybenzyl)-6-oxo-1,6-dihydropyrimidin-4-yl]oxy}methyl)benzyl]urea] as the molecule, how does the IC50 read?
Its IC50 is 16.3 nM.

same assay, conditions: Table 2; same p38α/MK2 cascade assay; 40 minutes preincubation; read-out: p38a/MK2 Cascade 40 min Pre-Incuabtion (% Inhibition): IC50

Which IC50 does the source give for `COc1ccccc1Cn1c(C)cc(OCc2ccccc2CNC(=O)Nc2cc(C(C)(C)C)nn2-c2ccc(O)c(Cl)c2)c(C)c1=O` [Example 264, 1-[3-tert-butyl-1-(3-chloro-4-hydroxyphenyl)-1H-pyrazol-5-yl]-3-[2-({[1-(2-methoxybenzyl)-3,6-dimethyl-2-oxo-1,2-dihydro-pyridin-4-yl]oxy}methyl)benzyl]urea] here?
The IC50 was 27.4 nM.

`COC(=O)c1ccc(C)c(-n2c(C)cc(OCc3ccccc3CNC(=O)Nc3cc(C(C)(C)C)nn3-c3cccc(OCCO)c3)c(Cl)c2=O)c1` [Example 209, methyl 3-[4-{[2-({[({3-tert-butyl-1-[3-(2-hydroxyethoxy)-phenyl]-1H-pyrazol-5-yl}amino)carbonyl]-amino}methyl)-benzyl]oxy}-3-chloro-6-methyl-2-oxopyridin-1(2H)-yl]-4-methylbenzoate] was tested. Which IC50 did it give?
Its IC50 is 3.8 nM.

For `Cc1ccc(C(=O)NCC(O)CO)cc1-n1c(C)cc(OCc2ccccc2CNC(=O)Nc2cc(C(C)(C)C)nn2-c2cccc(OCCO)c2)c(Cl)c1=O` (stereo not drawn) [Example 212, 3-[4-{[2-({[({3-tert-butyl-1-[3-(2-hydroxyethoxy)phenyl]-1H-pyrazol-5-yl}amino)carbonyl]amino}methyl)benzyl]oxy}-3-chloro-6-methyl-2-oxopyridin-1(2H)-yl]-N-(2,3-dihydroxypropyl)-4-methylbenzamide], which IC50 is on record?
Its IC50 is 1.8 nM.

Which IC50 does the source give for `COc1cc(Cn2c(C)cc(OCc3ccccc3CNC(=O)Nc3cc(C(C)(C)C)nn3-c3ccc(O)c(Cl)c3)c(Cl)c2=O)ccc1Cl` [Example 254, 1-[3-tert-butyl-1-(3-chloro-4-hydroxyphenyl)-1H-pyrazol-5-yl]-3-[2-({[3-chloro-1-(4-chloro-3-methoxybenzyl)-6-methyl-2-oxo-1,2-dihydropyridin-4-yl]oxy}methyl)benzyl]urea] here?
Its IC50 is 26.6 nM.

With `Cc1cc(OCc2ccccc2CNC(=O)Nc2cc(C(C)(C)C)nn2-c2ccc(O)c(Cl)c2)c(Cl)c(=O)n1Cc1ccc(CNC(=O)CN)cc1` [Example 274, N-[4-({4-[(2-{[({[3-tert-butyl-1-(3-chloro-4-hydroxyphenyl)-1H-pyrazol-5-yl]amino}carbonyl)amino]methyl}benzyl)oxy]-3-chloro-6-methyl-2-oxopyridin-1(2H)-yl}methyl)benzyl]-glycinamide] as the molecule, how does the IC50 read?
Its IC50 is 3.6 nM.

With `Cc1ccc(C(=O)NCCN(C)C)cc1-n1c(C)cc(OCc2ccccc2CNC(=O)Nc2cc(C(C)(C)C)nn2-c2ccc(O)c(Cl)c2)c(Cl)c1=O` [Example 229, 3-{4-[(2-{[({[3-tert-butyl-1-(3-chloro-4-hydroxyphenyl)-1H-pyrazol-5-yl]amino}carbonyl)amino]methyl}benzyl)oxy]-3-chloro-6-methyl-2-oxopyridin-1(2H)-yl}-N-[2-(dimethylamino)-ethyl]-4-methylbenzamide] as the molecule, how does the IC50 read?
Its IC50 is 2.3 nM.

Which IC50 does the source give for `COc1cc(Cn2c(C)cc(OCc3ccccc3CNC(=O)Nc3cc(C(C)(C)C)nn3-c3ccc(Cl)c(O)c3)c(Cl)c2=O)ccc1Cl` [Example 256, 1-[3-tert-butyl-1-(4-chloro-3-hydroxyphenyl)-1H-pyrazol-5-yl]-3-[2-({[3-chloro-1-(4-chloro-3-methoxybenzyl)-6-methyl-2-oxo-1,2-dihydropyridin-4-yl]oxy}methyl)benzyl]urea] here?
Its IC50 is 19.9 nM.

For `COc1ccc(Cn2c(C)cc(OCc3ccccc3CNC(=O)Nc3cc(C(C)(C)C)nn3-c3ccc(C)cc3)c(C)c2=O)c(OC)c1` [Example 245, 1-[3-tert-butyl-1-(4-methylphenyl)-1H-pyrazol-5-yl]-3-[2-({[1-(2,4-dimethoxybenzyl)-3,6-dimethyl-2-oxo-1,2-dihydropyridin-4-yl]oxy}methyl)benzyl]urea], which IC50 is on record?
The IC50 was 13.4 nM.

How did the IC50 turn out when `COc1cccc(Cn2c(C)cc(OCc3ccccc3CNC(=O)Nc3cc(C(C)(C)C)nn3-c3ccc(O)c(Cl)c3)c(Cl)c2=O)c1` [Example 215, 1-[3-tert-butyl-1-(3-chloro-4-hydroxyphenyl)-1H-pyrazol-5-yl]-3-[2-({[3-chloro-1-(3-methoxy-benzyl)-6-methyl-2-oxo-1,2-dihydropyridin-4-yl]oxy}methyl)-benzyl]urea] was run?
Its IC50 is 8 nM.

How did the IC50 turn out when `COc1ccc(Cn2c(C)cc(OCc3ccccc3CNC(=O)Nc3cc(C(C)(C)C)nn3-c3ccc(O)c(Cl)c3)c(C)c2=O)cc1Cl` [Example 266, 1-[3-tert-butyl-1-(3-chloro-4-hydroxyphenyl)-1H-pyrazol-5-yl]-3-[2-({[1-(3-chloro-4-methoxybenzyl)-3,6-dimethyl-2-oxo-1,2-dihydropyridin-4-yl]oxy}methyl)benzyl]urea] was run?
The IC50 was 19.2 nM.

`Cc1ccc(C(=O)NCCN(C)C)cc1-n1c(C)cc(OCc2ccccc2CNC(=O)Nc2cc(C(C)(C)C)nn2-c2ccc(Cl)c(O)c2)c(Cl)c1=O` [Example 231, 3-{4-[(2-{[({[3-tert-butyl-1-(4-chloro-3-hydroxyphenyl)-1H-pyrazol-5-yl]amino}carbonyl)amino]methyl}benzyl)oxy]-3-chloro-6-methyl-2-oxopyridin-1(2H)-yl}-N-[2-(dimethylamino)-ethyl]-4-methylbenzamide] was tested. Which IC50 did it give?
The IC50 was 1.8 nM.

With `COc1ccc(Cn2c(C)cc(OCc3ccccc3CNC(=O)Nc3cc(C(C)(C)C)nn3-c3ccc(Cl)c(O)c3)c(Cl)c2=O)cc1` [Example 257, 1-[3-tert-butyl-1-(4-chloro-3-hydroxyphenyl)-1H-pyrazol-5-yl]-3-[2-({[3-chloro-1-(4-methoxybenzyl)-6-methyl-2-oxo-1,2-dihydro-pyridin-4-yl]oxy}methyl)benzyl]urea] as the molecule, how does the IC50 read?
Its IC50 is 4.7 nM.
